Drawing on publication PMC6934184, “Selective DNA-PKcs inhibition extends the therapeutic index of localized radiotherapy and chemotherapy” (The Journal of Clinical Investigation, 2019), this text covers inhibition for 1 molecule.

The test deals with T1, ABL1 (Homo sapiens, UniProt P00519).
T1 construct: purchased Thermo Fisher Scientific (Life Technologies) SelectScreen
Put plainly: SelectScreen Z'LYTE. The test is classed as biochemical. Summed up:
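Compound tested in SelectScreen activity assays, Z'LYTE for CSF1R, CDK1/cyclin B and MAP2K6 and Adapta for CAMK1. ATP for CAMK1 was listed as 10, and Km app was used for CSF1R. Results are expressed in percent.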

T1 sequence (P00519 whole entry): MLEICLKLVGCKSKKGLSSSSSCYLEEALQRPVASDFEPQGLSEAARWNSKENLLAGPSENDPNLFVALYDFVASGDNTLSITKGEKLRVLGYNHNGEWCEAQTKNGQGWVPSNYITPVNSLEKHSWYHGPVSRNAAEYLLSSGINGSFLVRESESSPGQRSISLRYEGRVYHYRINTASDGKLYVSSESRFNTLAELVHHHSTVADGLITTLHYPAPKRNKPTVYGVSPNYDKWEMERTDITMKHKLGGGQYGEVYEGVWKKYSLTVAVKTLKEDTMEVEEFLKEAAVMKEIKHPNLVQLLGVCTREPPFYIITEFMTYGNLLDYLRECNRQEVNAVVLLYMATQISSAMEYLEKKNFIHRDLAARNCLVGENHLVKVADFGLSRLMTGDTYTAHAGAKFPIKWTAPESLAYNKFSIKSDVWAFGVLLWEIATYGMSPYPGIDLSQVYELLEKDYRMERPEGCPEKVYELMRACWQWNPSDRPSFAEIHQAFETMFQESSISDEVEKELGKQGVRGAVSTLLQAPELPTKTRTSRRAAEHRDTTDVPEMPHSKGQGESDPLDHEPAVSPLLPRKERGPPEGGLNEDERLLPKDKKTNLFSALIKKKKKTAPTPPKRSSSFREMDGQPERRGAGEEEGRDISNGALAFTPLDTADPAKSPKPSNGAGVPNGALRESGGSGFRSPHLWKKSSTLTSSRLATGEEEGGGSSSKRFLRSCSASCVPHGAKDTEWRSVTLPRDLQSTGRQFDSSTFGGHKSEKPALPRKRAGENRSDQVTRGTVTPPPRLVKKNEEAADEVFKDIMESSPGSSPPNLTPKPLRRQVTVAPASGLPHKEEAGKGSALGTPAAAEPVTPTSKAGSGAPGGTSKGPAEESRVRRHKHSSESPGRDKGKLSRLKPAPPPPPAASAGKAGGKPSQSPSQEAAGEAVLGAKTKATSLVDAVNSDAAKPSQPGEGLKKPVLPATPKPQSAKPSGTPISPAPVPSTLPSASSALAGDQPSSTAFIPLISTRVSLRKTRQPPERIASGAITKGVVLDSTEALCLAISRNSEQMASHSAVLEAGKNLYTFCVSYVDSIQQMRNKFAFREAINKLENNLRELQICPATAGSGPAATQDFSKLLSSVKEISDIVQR

Consider `CN(C(=O)CN1CCOCC1)c1ccc2sc3c(-c4cccc5c(=O)cc(N6CC7CCC(C6)O7)oc45)cccc3c2c1` [NU5455], for which the inhibition at 1 µM came to 10.4%.

The inhibition is how much of the control response was suppressed. A lower inhibition goes with little suppression.
